Laboratory results: paper PMC2923755, “Thermolability of mutant MMACHC protein in the vitamin B12-responsive cblC disorder” (Molecular Genetics and Metabolism, 2010)

T1: MMACHC-R161Q (Homo sapiens, UniProt Q9Y4U1, R161Q)
T1 construct: His-tag (N, cleaved yes); made in house; host or cells: E. coli BL21 DE3
T1 sequence (Q9Y4U1 1-282 R161Q): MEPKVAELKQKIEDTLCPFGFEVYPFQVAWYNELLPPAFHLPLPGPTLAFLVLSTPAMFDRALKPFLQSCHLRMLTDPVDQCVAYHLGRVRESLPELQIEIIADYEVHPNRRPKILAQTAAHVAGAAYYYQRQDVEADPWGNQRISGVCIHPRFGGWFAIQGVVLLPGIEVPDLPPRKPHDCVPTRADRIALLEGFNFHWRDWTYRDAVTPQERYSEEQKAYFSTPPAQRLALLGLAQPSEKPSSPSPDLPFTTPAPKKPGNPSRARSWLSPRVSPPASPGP

T2: MMACHC-wt (Homo sapiens, UniProt Q9Y4U1)
T2 construct: His-tag (N, cleaved yes); made in house; host or cells: E. coli BL21 DE3
T2 sequence (Q9Y4U1 1-282): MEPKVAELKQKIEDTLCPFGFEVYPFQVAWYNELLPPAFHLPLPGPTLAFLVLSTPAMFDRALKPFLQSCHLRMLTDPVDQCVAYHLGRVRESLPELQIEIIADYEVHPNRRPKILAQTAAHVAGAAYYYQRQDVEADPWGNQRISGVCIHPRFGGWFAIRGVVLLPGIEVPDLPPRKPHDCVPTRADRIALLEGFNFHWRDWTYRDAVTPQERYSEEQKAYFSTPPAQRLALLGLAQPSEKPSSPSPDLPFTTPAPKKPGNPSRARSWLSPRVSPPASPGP

T3: His-MMACHC-wt (Homo sapiens, UniProt Q9Y4U1)
T3 construct: made in house; host or cells: E. coli BL21 DE3
T3 sequence (Q9Y4U1 1-282): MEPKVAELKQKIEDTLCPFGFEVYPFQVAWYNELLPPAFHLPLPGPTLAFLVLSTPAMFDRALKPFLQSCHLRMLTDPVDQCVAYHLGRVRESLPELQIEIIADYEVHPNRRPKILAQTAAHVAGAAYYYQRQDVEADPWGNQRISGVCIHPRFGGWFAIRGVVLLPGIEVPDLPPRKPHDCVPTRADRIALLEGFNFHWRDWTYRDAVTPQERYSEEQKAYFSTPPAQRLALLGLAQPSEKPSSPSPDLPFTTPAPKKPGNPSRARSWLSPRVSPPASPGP


Key:
MMACHC-R161Q = target: T1, MMACHC-R161Q; assay: Differential scanning fluorimetry (DSF), stabilization by cobalamins; type: binding; conditions: DSF
Experimental: (§1) DSF was performed and analyzed as described in Niesen et al., with minor modifications. Purified MMACHC proteins were diluted to 0.1 mg/ml (3 μM) in buffer (10 mM HEPES pH 7.5, 0.5 M NaCl, 5% glycerol) with 1:1000 Sypro Orange (Invitrogen) and run in triplicate. The proteins were heated from 5 to 75 °C with a ramp rate of 1 °C/min in a thermocycler (Bio-rad C1000 Thermocycler, CFX96 Real-time system). All graphs were normalized so that minimum fluorescence was set to 0 and maximum fluorescence set to 1. […] Final graphs and AC50’s were generated using Kadeidagraph 4.0 software (Synergy Software, Reading, PA). AC50’s were determined by fitting the ΔTm vs. ligand concentration curves to the equation ΔTm = ΔTm max[S]/(AC50 + [S]) where ΔTm is the change in melting temperature (Tm[protein + ligand] − Tm[protein]), ΔTm max is the maximal change in Tm at saturating (50 μM) ligand concentration and [S] is the ligand concentration.
(§2) Wild-type (MMACHC-wt) and mutant (MMACHC-R161Q) MMACHC were expressed and purified to >95% purity, with His-tag removed, as judged by SDS–PAGE (Fig. 2A). In order to investigate the thermostability of MMACHC we used DSF, a method that measures protein stability and ligand-induced changes in stability [[20,21]]. DSF uses an environmentally sensitive dye, such as Sypro orange, to monitor protein-unfolding caused by heat denaturation. As the protein unfolds, the dye, which has a higher fluorescence quantum yield in nonpolar environments than in aqueous media, binds to hydrophobic regions of the protein, causing a large increase in fluorescence [[22,23]]. Protein stability is expressed as the melting point of the protein (Tm), that is, the transition midpoint of the fluorescence curve, corresponding to the temperature at which half of the protein molecules are folded and half are unfolded. […] Even lower was the stability of MMACHC-R161Q (Tm = 37.1 ± 0.7 °C) (Fig. 2B). The difference in Tm was small but nonetheless significant (p < 0.01). A second difference between the wild-type and mutant proteins was the shape of the unfolding curves, with the unfolding of the mutant protein showing high cooperativity indicating a two-state unfolding mechanism while the unfolding of the wild-type protein stretched over a larger temperature range and comprised two phases (Fig. 2B; also Fig. 3A at 0 μM OHCbl).

MMACHC-wt = target: T2, MMACHC-wt; assay: as above; type: binding
Experimental: as §1, §2

His-MMACHC-wt = target: T3, His-MMACHC-wt; parameters: method as in PMID 18779575; conditions: cited from earlier work
[1] = DSF thermostability of apo protein; type: physicochemical; conditions: apo form, His-tag removed, no ligand
Experimental: as §1
Wild-type (MMACHC-wt) and mutant (MMACHC-R161Q) MMACHC were expressed and purified to >95% purity, with His-tag removed, as judged by SDS–PAGE (Fig. 2A). […] As the protein unfolds, the dye, which has a higher fluorescence quantum yield in nonpolar environments than in aqueous media, binds to hydrophobic regions of the protein, causing a large increase in fluorescence [[22,23]]. […]

[2] = Isothermal denaturation (ITD); type: physicochemical; conditions: constant 35 °C over 120 min, Sypro orange fluorescence
Experimental: ITD was performed as previously described with minor variations. Samples of both proteins prepared similarly as for DSF (at similar concentrations) were kept at constant temperature of 35 °C while monitoring the fluorescence of Sypro orange at intervals of one minute in a thermocycler (Bio-rad C1000 Thermocycler, CFX96 Real-time system) over 120 min (n = 12 for each protein).
We performed isothermal […] (ITD) to investigate further the difference in stability between the two proteins. ITD has been described as being more sensitive than DSF for detecting small changes in protein stability. ITD measures the unfolding of proteins at a constant temperature, typically chosen as a few degrees below the Tm, using a similar procedure as DSF including the use of Sypro orange as the reporter dye. […] After 120 min the intensity reached approximately half of the amplitude seen for unfolding with DSF (Fig. 2B). […] This difference cannot be explained with the relatively small difference in the Tm. If ITD is performed at a temperature that falls within the range of the unfolding transition a gradual increase in the proportion of unfolded protein molecules, i.e. a constant increase in fluorescence intensity, would still be expected even at temperatures […] the Tm (18).

[3] = Tm at 50 μM ligand minus Tm at 0 μM ligand
[4] = half-maximal effective ligand concentration for stabilization, 3 μM protein, fit of ΔTm vs ligand concentration

ΔTm max (MMACHC-R161Q; [3]) [°C]	AC50 (MMACHC-R161Q; [4]) [µM]	ΔTm max (MMACHC-wt; [3]) [°C]	AC50 (MMACHC-wt; [4]) [nM]	Molecule	binding conformation (base-on/off) (His-MMACHC-wt)	melting temperature (Tm) [1] [°C]	unfolding by isothermal denaturation [2]
9.3 ± 0.3	8 ± 1.6	12.7 ± 0.4	2100 ± 300	C/C1=C2/[N-][C@H]([C@H](CC(N)=O)[C@@]2(C)CCC(=O)NC[C@H](C)OP(=O)([O-])O[C@H]2[C@@H](O)[C@@H](n3cnc4cc(C)c(C)cc43)O[C@@H]2CO)[C@]2(C)N=C(/C(C)=C3N=C(/C=C4N=C1[C@@H](CCC(N)=O)C\4(C)C)[C@@H](CCC(N)=O)[C@]\3(C)CC(N)=O)[C@@H](CCC(N)=O)[C@]2(C)CC(N)=O.[CH3-].[Co+3] [MeCbl, methylcobalamin]	base-off		
				MMACHC-wt: recombinant wild-type MMACHC protein, His-tag removed by TEV (protein, UniProt Q9Y4U1 1-282, looked up) Cyanocobalamin reductase / …: MEPKVAELKQKIEDTLCPFGFEVYPFQVAWYNELLPPAFHLPLPGPTLAFLVLSTPAMFDRALKPFLQSCHLRMLTDPVDQCVAYHLGRVRESLPELQIEIIADYEVHPNRRPKILAQTAAHVAGAAYYYQRQDVEADPWGNQRISGVCIHPRFGGWFAIRGVVLLPGIEVPDLPPRKPHDCVPTRADRIALLEGFNFHWRDWTYRDAVTPQERYSEEQKAYFSTPPAQRLALLGLAQPSEKPSSPSPDLPFTTPAPKKPGNPSRARSWLSPRVSPPASPGP		39.3 ± 1.0	did not unfold
				MMACHC-R161Q: recombinant MMACHC protein carrying the late-onset cblC mutation R161Q, His-tag removed (protein, UniProt Q9Y4U1 1-282, looked up, variant R161Q) Cyanocobalamin reductase / …: MEPKVAELKQKIEDTLCPFGFEVYPFQVAWYNELLPPAFHLPLPGPTLAFLVLSTPAMFDRALKPFLQSCHLRMLTDPVDQCVAYHLGRVRESLPELQIEIIADYEVHPNRRPKILAQTAAHVAGAAYYYQRQDVEADPWGNQRISGVCIHPRFGGWFAIQGVVLLPGIEVPDLPPRKPHDCVPTRADRIALLEGFNFHWRDWTYRDAVTPQERYSEEQKAYFSTPPAQRLALLGLAQPSEKPSSPSPDLPFTTPAPKKPGNPSRARSWLSPRVSPPASPGP		37.1 ± 0.7	unfolding
